Measured values published in ChEMBL document CHEMBL1201862, “PubChem BioAssay data set” (2004).
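96-well plates; 48 h exposure; 5 concentrations. Endpoints by linear interpolation between flanking doses. Not reached: highest tested concentration assigned. GI50 marks 50% less growth.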 Active and inactive are the calls of the source. Cut-off read from the data, not from the text of the source: active = GI50 up to about 1.1 µM and inactive = higher.

Assays:
Assay in all cases: growth of human tumour cells (NCI), 48 h
786-0 = system: 786-0
ACHN = system: ACHN
CAKI-1 = system: CAKI-1
EKVX = system: EKVX
HCC 2998 = system: HCC 2998
HL-60 = system: HL-60
IGROV-1 = system: IGROV-1
LOX IMVI = system: LOX IMVI
MCF7 = system: MCF7
NCI-H226 = system: NCI-H226
NCI-H23 = system: NCI-H23
NCI-H460 = system: NCI-H460
NCI/ADR-RES = system: NCI/ADR-RES
OVCAR-8 = system: OVCAR-8
PC-3 = system: PC-3
SF-295 = system: SF-295
SK-MEL-2 = system: SK-MEL-2
SK-OV-3 = system: SK-OV-3
DU-145 = system: DU-145
NCI-H522 = system: NCI-H522

Row | Structure (SMILES) | GI50 (786-0) | GI50 (ACHN) | GI50 (CAKI-1) | GI50 (EKVX) | GI50 (HCC 2998) | GI50 (HL-60) | GI50 (IGROV-1) | GI50 (LOX IMVI) | GI50 (MCF7) | GI50 (NCI-H226) | GI50 (NCI-H23) | GI50 (NCI-H460) | GI50 (NCI/ADR-RES) | GI50 (OVCAR-8) | GI50 (PC-3) | GI50 (SF-295) | GI50 (SK-MEL-2) | GI50 (SK-OV-3) | GI50 (DU-145) | GI50 (NCI-H522)
1 | NC(=S)N/N=C1\C(=O)Nc2c(Cl)cc(Cl)cc21 | 22.9 µM (inactive) | 37.4 µM (inactive) | 41.2 µM (inactive) | 20.3 µM (inactive) | 34.5 µM (inactive) | 12.4 µM (inactive) | 22.5 µM (inactive) | 18.3 µM (inactive) | 28 µM (inactive) | 15.7 µM (inactive) | 37.6 µM (inactive) | 17.1 µM (inactive) | 17.8 µM (inactive) | 18.1 µM (inactive) | 17.8 µM (inactive) | 19.2 µM (inactive) | 15.5 µM (inactive) | 41.9 µM (inactive) |  | 
2 | C1#Cc2ccccc2OCCOc2ccccc2C#Cc2ccccc2OCCOc2ccccc21 | 10.3 µM (inactive) | 15 µM (inactive) | 17.7 µM (inactive) | 26.5 µM (inactive) |  | 61.2 µM (inactive) | 15.6 µM (inactive) | 16 µM (inactive) | > 100 µM (inactive) | 19.1 µM (inactive) | 16.9 µM (inactive) | 24.9 µM (inactive) | 29.4 µM (inactive) | 13.8 µM (inactive) | 52 µM (inactive) | 21.6 µM (inactive) | 71 µM (inactive) |  | > 100 µM (inactive) | 20.7 µM (inactive)
3 | CC1=NN(C(=O)c2ccc(Cl)cc2)C(=O)C1/N=N/c1ccc(S(=O)(=O)Nc2ncccn2)cc1 (configuration not stated) | > 100 µM (inactive) | > 100 µM (inactive) | > 100 µM (inactive) | > 100 µM (inactive) |  | > 100 µM (inactive) | > 100 µM (inactive) | > 100 µM (inactive) | > 100 µM (inactive) | > 100 µM (inactive) | > 100 µM (inactive) | > 100 µM (inactive) | > 100 µM (inactive) | > 100 µM (inactive) | 0.217 µM (active) | > 100 µM (inactive) | > 100 µM (inactive) | > 100 µM (inactive) | > 100 µM (inactive) | > 100 µM (inactive)
4 | CCOc1ccccc1/N=N/c1c(-c2ccccc2)nn(C(=O)CC(=O)Nc2cccc(Cl)c2)c1-c1ccccc1 | 89.1 µM (inactive) | 18.7 µM (inactive) | 43.1 µM (inactive) | 41.1 µM (inactive) | 26.2 µM (inactive) | 58.6 µM (inactive) | 68.9 µM (inactive) | 35.7 µM (inactive) |  | 64.1 µM (inactive) | 61.8 µM (inactive) | 44.6 µM (inactive) |  | 63.5 µM (inactive) |  | 50.4 µM (inactive) | > 100 µM (inactive) | > 100 µM (inactive) |  | 40.5 µM (inactive)
5 | CN(/N=C\c1ccc2ccccc2c1)C1=NCCN1 | 15.6 µM (inactive) | 23.1 µM (inactive) | 10.3 µM (inactive) | 19.8 µM (inactive) | 16.2 µM (inactive) | 10.4 µM (inactive) | 19.5 µM (inactive) | 11.2 µM (inactive) | 16.3 µM (inactive) | 16.3 µM (inactive) | 30.7 µM (inactive) | 12.5 µM (inactive) | 20.6 µM (inactive) | 30.3 µM (inactive) |  | 14.4 µM (inactive) | 15.2 µM (inactive) | 35.8 µM (inactive) | 25.6 µM (inactive) | 15.7 µM (inactive)
6 | O=C(c1ccc(Cl)cc1)N(C(=O)N1CCC(c2ccccc2)CC1)c1ccccc1 | 70.3 µM (inactive) | 57.8 µM (inactive) | 54.1 µM (inactive) | 10.4 µM (inactive) |  | 17.1 µM (inactive) | 17.9 µM (inactive) | 28.1 µM (inactive) | 39.4 µM (inactive) | 17.8 µM (inactive) | 23.9 µM (inactive) |  | 16.6 µM (inactive) | 33.8 µM (inactive) | 6.4 µM (inactive) | 31 µM (inactive) | 37.2 µM (inactive) | > 100 µM (inactive) | 59 µM (inactive) | 
7 | N#CCCN(CCN(C(=O)Nc1ccccc1)c1ccccc1)C(=O)Nc1ccccc1 | > 100 µM (inactive) | 52.1 µM (inactive) | > 43 µM (inactive) | 69.5 µM (inactive) | > 80.7 µM (inactive) | 13 µM (inactive) | 76.7 µM (inactive) | 49.8 µM (inactive) | > 71.1 µM (inactive) | 79.4 µM (inactive) | > 60.1 µM (inactive) | > 67.5 µM (inactive) | 28.6 µM (inactive) | 64.3 µM (inactive) | 43.3 µM (inactive) | 62.5 µM (inactive) | > 100 µM (inactive) | > 100 µM (inactive) |  | > 55.3 µM (inactive)
8 | CC(C(=O)NCNC(=O)c1ccccc1)C(=O)NCc1ccccc1 (configuration not stated) | > 100 µM (inactive) | > 100 µM (inactive) | > 100 µM (inactive) | > 100 µM (inactive) |  | > 100 µM (inactive) | > 100 µM (inactive) |  | > 100 µM (inactive) | > 100 µM (inactive) | > 100 µM (inactive) | > 100 µM (inactive) | > 100 µM (inactive) | > 100 µM (inactive) | > 100 µM (inactive) | > 100 µM (inactive) | > 100 µM (inactive) | > 100 µM (inactive) | > 100 µM (inactive) | 99.3 µM (inactive)
9 | Clc1ccc2c(Cl)ncnc2c1I | > 100 µM (inactive) | > 10 µM (inactive) | 64 µM (inactive) | 10.4 µM (inactive) | > 100 µM (inactive) | 20.1 µM (inactive) | 52.5 µM (inactive) | > 100 µM (inactive) |  | 32.4 µM (inactive) | > 100 µM (inactive) | > 100 µM (inactive) |  | > 100 µM (inactive) |  | > 100 µM (inactive) | > 100 µM (inactive) | > 100 µM (inactive) |  | 20.6 µM (inactive)
10 | C=Cc1cc2c(cc1O)CC[C@@H]1[C@@H]2CC[C@]2(C)[C@@H](O)CC[C@@H]12 | 4.13 µM (inactive) | 7.23 µM (inactive) | 7.94 µM (inactive) | 7.38 µM (inactive) | 11.2 µM (inactive) | 2.67 µM (inactive) | 8.09 µM (inactive) | 8.63 µM (inactive) |  | 12.4 µM (inactive) | 3.18 µM (inactive) | 3.94 µM (inactive) | 1.77 µM (inactive) |  | 11.6 µM (inactive) | 3.82 µM (inactive) | 5.78 µM (inactive) | 5.79 µM (inactive) |  | 4.66 µM (inactive)
11 | N/C(=N\O)N/N=C/c1ccc(O)c(O)c1 | > 100 µM (inactive) | > 100 µM (inactive) | > 100 µM (inactive) | > 100 µM (inactive) | > 100 µM (inactive) | > 100 µM (inactive) | > 100 µM (inactive) | > 100 µM (inactive) |  | > 100 µM (inactive) | > 100 µM (inactive) | > 100 µM (inactive) |  | > 100 µM (inactive) |  | > 100 µM (inactive) | > 100 µM (inactive) | > 100 µM (inactive) |  | > 100 µM (inactive)
12 | COC(=O)CCN(CCC(=O)OC)C1CC1 | > 100 µM (inactive) | > 100 µM (inactive) |  | > 100 µM (inactive) | > 100 µM (inactive) | > 100 µM (inactive) | > 100 µM (inactive) | > 100 µM (inactive) | > 100 µM (inactive) | > 100 µM (inactive) | > 100 µM (inactive) | > 100 µM (inactive) | > 100 µM (inactive) | > 100 µM (inactive) |  | > 100 µM (inactive) |  | > 100 µM (inactive) | > 100 µM (inactive) | 
13 | O=C(CCCNC(=O)OCc1ccccc1)OCc1ccc2c(c1)C(=O)c1ccccc1C2=O | 25.3 µM (inactive) | > 100 µM (inactive) | > 56.8 µM (inactive) | > 100 µM (inactive) | > 100 µM (inactive) | > 100 µM (inactive) | 48.9 µM (inactive) | > 100 µM (inactive) |  | 5.46 µM (inactive) | 45.6 µM (inactive) | > 100 µM (inactive) |  | 47.9 µM (inactive) |  | 11.3 µM (inactive) | > 89.7 µM (inactive) | 29.6 µM (inactive) |  | > 100 µM (inactive)
14 | O=C(CC(C(=O)c1cccs1)c1ccsc1)c1ccco1 (configuration not stated) | 33.7 µM (inactive) | 32.3 µM (inactive) | 29.1 µM (inactive) | 24.8 µM (inactive) | 36 µM (inactive) | 15.4 µM (inactive) | 47.6 µM (inactive) | 37.3 µM (inactive) | 21.1 µM (inactive) | 27 µM (inactive) | 19.5 µM (inactive) | 24.2 µM (inactive) | 20.4 µM (inactive) | 32.3 µM (inactive) |  | 39.7 µM (inactive) |  | 41.3 µM (inactive) | 31 µM (inactive) | 20 µM (inactive)
15 | COC(=O)[C@H](C)N(C)C(=O)[C@H](C)N1[C@@H](c2ccccc2)COC1(C)C | > 100 µM (inactive) | > 100 µM (inactive) | > 100 µM (inactive) | > 100 µM (inactive) |  | > 100 µM (inactive) | > 100 µM (inactive) | > 100 µM (inactive) | > 100 µM (inactive) | > 100 µM (inactive) | > 100 µM (inactive) | > 100 µM (inactive) | > 100 µM (inactive) | > 100 µM (inactive) | > 100 µM (inactive) | > 100 µM (inactive) | > 100 µM (inactive) | > 100 µM (inactive) |  | > 100 µM (inactive)
16 | Cc1ccc(C)c(NC(=O)C(=O)Nn2c(S)nc3ccccc3c2=O)c1 | > 100 µM (inactive) | > 100 µM (inactive) | > 100 µM (inactive) | 71.3 µM (inactive) | > 100 µM (inactive) | > 100 µM (inactive) | > 100 µM (inactive) | > 100 µM (inactive) |  | > 100 µM (inactive) | > 100 µM (inactive) | > 100 µM (inactive) |  | > 100 µM (inactive) |  | > 100 µM (inactive) | > 100 µM (inactive) | > 100 µM (inactive) |  | > 100 µM (inactive)
